IC50 and EC50 data for 30 compounds are collected here from patent US8133884B2, “Compounds for the treatment of hepatitis C” (priority 2008, dated 2012).

One test has as its target T1, HCV NS5B (Hepatitis C virus genotype 1b, UniProt Q9WMX2).
T1 construct: The protein was expressed with an 18 amino acid C-terminal truncation to enhance the solubility; made in house; host or cells: E. coli BL21(DE3)
Kind of test: Modified HCV NS5B RdRp enzyme assay (preincubation protocol). In kind it is biochemical. Put shortly: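 C-terminally truncated (Δ18) genotype 1b NS5B from E. coli, 14 nM, added to compound first, then polyA template (0.2 nM), 3H-UTP (0.29 μM) and oligo-dT12 primer precaptured on streptavidin SPA beads (20 nM). Run 4 h at 30° C, pH 7.5, 2% DMSO; IC50 fitted from seven concentrations.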

In a further test the test system is HCV replicon. Kind of test: HCV replicon assay (FRET or luciferase reporter). It counts as cell-based. To be noted: Hepatitis C virus, one of the methods described. The procedure, abridged:
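HCV replicon Huh-7 cells were exposed to titrated compound at 37 °C, with Alamar blue as a cytotoxicity read. Replication was measured by NS3 cleavage of an EDANS/DABCYL FRET peptide (20 μM, 340/490 nm kinetic read) or by Renilla luciferase, with background from high-dose protease inhibitor wells. EC50 was taken as 50% signal reduction; a 384-well format used 3.0×10^3 cells/well, 0.5% DMSO and 3 days.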

Molecules are shown by their SMILES. A value given as a limit tells only on which side of the number the result lay.

T1 sequence (Q9WMX2 2420-2992): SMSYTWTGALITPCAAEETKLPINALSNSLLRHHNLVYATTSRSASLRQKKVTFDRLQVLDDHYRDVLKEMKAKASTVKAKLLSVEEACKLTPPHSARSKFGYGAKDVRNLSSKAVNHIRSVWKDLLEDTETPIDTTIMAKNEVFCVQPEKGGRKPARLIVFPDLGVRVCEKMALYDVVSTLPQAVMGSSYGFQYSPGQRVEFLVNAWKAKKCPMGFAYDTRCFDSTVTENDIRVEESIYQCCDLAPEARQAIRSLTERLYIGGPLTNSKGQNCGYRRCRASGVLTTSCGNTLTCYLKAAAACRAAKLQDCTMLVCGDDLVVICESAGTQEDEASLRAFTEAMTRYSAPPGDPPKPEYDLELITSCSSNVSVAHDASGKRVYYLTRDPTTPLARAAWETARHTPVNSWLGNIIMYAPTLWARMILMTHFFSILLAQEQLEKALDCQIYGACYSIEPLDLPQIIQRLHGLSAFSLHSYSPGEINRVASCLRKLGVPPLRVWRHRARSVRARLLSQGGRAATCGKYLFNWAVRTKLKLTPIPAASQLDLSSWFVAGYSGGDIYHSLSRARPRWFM

Turning to `COc1ccc2c(c1)C=C(c1c(C(=O)N3C[C@@H](C)N(C)[C@@H](C)C3)cnn1C1CCC1)Cn1c-2c(C2CCCCC2)c2ccc(C(=O)NS(=O)(=O)CC(C)C)cc21`, on HCV NS5B (class symbol), the IC50 (commonly the point on the concentration scale where inhibition reaches its midpoint) fell in the range of 1.7 to 500 nM. Besides, the EC50 (commonly the midpoint of the concentration-response curve) in the test with HCV replicon (class symbol) fell in the range of 1.7 to 500 nM.
`COc1ccc2c(c1)C=C(c1c(C(=O)N3CCOCC3)cnn1C1CCC1)Cn1c-2c(C2CCCCC2)c2ccc(C(=O)NS(=O)(=O)CC(C)C)cc21`: the IC50 against HCV NS5B (class symbol) was in the range of 1.7 to 500 nM. In the test with HCV replicon (class symbol), this compound showed an EC50 of 1.7 to 500 nM.
The compound `COc1ccc2c(c1)C=C(c1c(C(=O)N3C[C@@H](C)O[C@@H](C)C3)cnn1C1CCC1)Cn1c-2c(C2CCCCC2)c2ccc(C(=O)NS(=O)(=O)CC(C)C)cc21` showed an IC50 against HCV NS5B (class symbol) of 1.7 to 500 nM. The compound also returned an EC50 in the test on HCV replicon (class symbol) of 1.7 to 500 nM.
At HCV NS5B (class symbol), `COc1ccc2c(c1)C=C(c1c(C(=O)N3C4CCC3CN(C)C4)c(C)nn1C1CCC1)Cn1c-2c(C2CCCCC2)c2ccc(C(=O)NS(=O)(=O)C(C)C)cc21` returned an IC50 of 1.7 to 500 nM. Also, the EC50 in the test with HCV replicon (class symbol) lay in the range of 1.7 to 500 nM.
At HCV NS5B (class symbol), `COc1ccc2c(c1)C=C(c1c(C(=O)N3CCOCC3)c(C)nn1C1CCC1)Cn1c-2c(C2CCCCC2)c2ccc(C(=O)NS(=O)(=O)C(C)C)cc21` had an IC50 of 1.7 to 500 nM. Besides, the EC50 with HCV replicon (class symbol) fell in the range of 1.7 to 500 nM.
Compound `COC[C@@H]1CN(C(=O)c2c(C)nn(C3CCC3)c2C2=Cc3cc(OC)ccc3-c3c(C4CCCCC4)c4ccc(C(=O)NS(=O)(=O)C(C)C)cc4n3C2)CCO1` came in with an IC50 against HCV NS5B (class symbol) of 1.7 to 500 nM. Besides, the EC50 in the test with HCV replicon (class symbol) was 1.7 to 500 nM.
`COc1ccc2c(c1)C=C(c1c(C(=O)N3C4CCC3COC4)c(C)nn1C1CCC1)Cn1c-2c(C2CCCCC2)c2ccc(C(=O)NS(=O)(=O)C(C)C)cc21` showed an IC50 against HCV NS5B (class symbol) of 1.7 to 500 nM. The EC50 in the test on HCV replicon (class symbol) is 1.7 to 500 nM.
`COc1ccc2c(c1)C=C(c1c(C(=O)N3C[C@@H]4C[C@H]3CO4)c(C)nn1C1CCC1)Cn1c-2c(C2CCCCC2)c2ccc(C(=O)NS(=O)(=O)C(C)C)cc21` registered an IC50 against HCV NS5B (class symbol) of 1.7 to 500 nM. Besides, the EC50 in the test with HCV replicon (class symbol) lay in the range of 1.7 to 500 nM.
At HCV NS5B (class symbol), `COc1ccc2c(c1)C=C(c1c(C(=O)N3C4CCCC3COC4)c(C)nn1C1CCC1)Cn1c-2c(C2CCCCC2)c2ccc(C(=O)NS(=O)(=O)C(C)C)cc21` yielded a half-inhibitory concentration (IC50) of 1.7 to 500 nM. Moreover, in the test with HCV replicon (class symbol), the EC50 is 1.7 to 500 nM.
On to `COc1ccc2c(c1)C=C(c1c(C(=O)N3CCN(C)CC3)c(C)nn1C1CCC1)Cn1c-2c(C2CCCCC2)c2ccc(C(=O)NS(=O)(=O)C(C)C)cc21`, for which the IC50 against HCV NS5B (class symbol) was 1.7 to 500 nM. This compound also registered an EC50 in the test on HCV replicon (class symbol) of 1.7 to 500 nM.
`COc1ccc2c(c1)C=C(c1c(C(=O)N3C[C@@H](C)N(C)[C@@H](C)C3)c(C)nn1C1CCC1)Cn1c-2c(C2CCCCC2)c2ccc(C(=O)NS(=O)(=O)C(C)C)cc21` came in with an IC50 against HCV NS5B (class symbol) of 1.7 to 500 nM. In addition, the EC50 with HCV replicon (class symbol) was 1.7 to 500 nM.
In turn, `COc1ccc2c(c1)C=C(c1c(C(=O)N3CC4CCC(C3)N4C)c(C)nn1C1CCC1)Cn1c-2c(C2CCCCC2)c2ccc(C(=O)NS(=O)(=O)C(C)C)cc21` yielded an IC50 against HCV NS5B (class symbol) of 1.7 to 500 nM. Moreover, the EC50 in the test on HCV replicon (class symbol) was 1.7 to 500 nM.
In turn, `COc1ccc2c(c1)C=C(c1c(C(=O)N3C[C@@H]4C[C@H]3CN4C)c(C)nn1C1CCC1)Cn1c-2c(C2CCCCC2)c2ccc(C(=O)NS(=O)(=O)C(C)C)cc21` showed an IC50 against HCV NS5B (class symbol) of 1.7 to 500 nM. Also, the EC50 with HCV replicon (class symbol) lay within 1.7 to 500 nM.
The compound `COc1ccc2c(c1)C=C(c1c(C(=O)N3C[C@@H]4C[C@H]3CN4CC3CC3)c(C)nn1C1CCC1)Cn1c-2c(C2CCCCC2)c2ccc(C(=O)NS(=O)(=O)C(C)C)cc21` showed an IC50 against HCV NS5B (class symbol) of 1.7 to 500 nM. The compound also yielded an EC50 in the test with HCV replicon (class symbol) of 1.7 to 500 nM.
For `CCN1C[C@H]2C[C@@H]1CN2C(=O)c1cnn(C2CCC2)c1C1=Cc2cc(OC)ccc2-c2c(C3CCCCC3)c3ccc(C(=O)NS(=O)(=O)C(C)C)cc3n2C1`, on HCV NS5B (class symbol), the IC50 was in the range of 1.7 to 500 nM. In the test with HCV replicon (class symbol), the EC50 lay in the range of 1.7 to 500 nM.
`COc1ccc2c(c1)C=C(c1c(C(=O)N3CC[C@H]4C[C@H]43)cnn1C1CCC1)Cn1c-2c(C2CCCCC2)c2ccc(C(=O)NS(=O)(=O)C(C)C)cc21` registered an IC50 at HCV NS5B (class symbol) of 1.7 to 500 nM. The compound further gave a half-maximal effective concentration (EC50) with HCV replicon (class symbol) of 1.7 to 500 nM.
`COc1ccc2c(c1)C=C(c1c(C(=O)N3CCC(F)(F)CC3)cnn1C1CCC1)Cn1c-2c(C2CCCCC2)c2ccc(C(=O)NS(=O)(=O)C(C)C)cc21`: the IC50 at HCV NS5B (class symbol) is 1.7 to 500 nM. In the test on HCV replicon (class symbol), the EC50 was in the range of 1.7 to 500 nM.
On HCV NS5B (class symbol), `COc1ccc2c(c1)C=C(c1c(C(=O)N3C4CCC3CC4)cnn1C1CCC1)Cn1c-2c(C2CCCCC2)c2ccc(C(=O)NS(=O)(=O)C(C)C)cc21` registered an IC50 of 1.7 to 500 nM. The compound further displayed an EC50 in the test on HCV replicon (class symbol) of 1.7 to 500 nM.
As for `COCCN(CCOC)C(=O)c1cnn(C2CCC2)c1C1=Cc2cc(OC)ccc2-c2c(C3CCCCC3)c3ccc(C(=O)NS(=O)(=O)C(C)C)cc3n2C1`, the IC50 against HCV NS5B (class symbol) is 1.7 to 500 nM. In the test on HCV replicon (class symbol), the EC50 was 1.7 to 500 nM.
As to `COCCN(C(=O)c1cnn(C2CCC2)c1C1=Cc2cc(OC)ccc2-c2c(C3CCCCC3)c3ccc(C(=O)NS(=O)(=O)C(C)C)cc3n2C1)C(C)C`, at HCV NS5B (class symbol), the IC50 was 1.7 to 500 nM. For the same compound, in the test with HCV replicon (class symbol), the EC50 lay in the range of 1.7 to 500 nM.
In the case of `COc1ccc2c(c1)C=C(c1c(C(=O)N3CC(F)(F)C3)cnn1C1CCC1)Cn1c-2c(C2CCCCC2)c2ccc(C(=O)NS(=O)(=O)C(C)C)cc21`, the IC50 against HCV NS5B (class symbol) lay within 1.7 to 500 nM. Further, the EC50 in the test on HCV replicon (class symbol) lay within 1.7 to 500 nM.
Consider `COc1ccc2c(c1)C=C(c1c(C(=O)N3C4CCCCC3CCC4)cnn1C1CCC1)Cn1c-2c(C2CCCCC2)c2ccc(C(=O)NS(=O)(=O)C(C)C)cc21`, for which the 50% inhibitory concentration (IC50) at HCV NS5B (class symbol) was 1.7 to 500 nM; at HCV NS5B (exact value), 7 nM. Moreover, the EC50 in the test on HCV replicon (class symbol) was 1.7 to 500 nM; with HCV replicon (exact value), 400 nM.
Compound `COc1ccc2c(c1)C=C(c1c(C(=O)N3CC4CCC3C4)cnn1C1CCC1)Cn1c-2c(C2CCCCC2)c2ccc(C(=O)NS(=O)(=O)C(C)C)cc21` (stereo not drawn) showed an IC50 at HCV NS5B (class symbol) of 1.7 to 500 nM. Also, the EC50 in the test with HCV replicon (class symbol) was 1.7 to 500 nM.
The compound `COc1ccc2c(c1)C=C(c1c(C(=O)N3C[C@@H]4C[C@H]3CN4)cnn1C1CCC1)Cn1c-2c(C2CCCCC2)c2ccc(C(=O)NS(=O)(=O)C(C)C)cc21` displayed an IC50 against HCV NS5B (class symbol) of 1.7 to 500 nM. For the same compound, the EC50 with HCV replicon (class symbol) lay in the range of 1.7 to 500 nM.
As to `COc1ccc2c(c1)C=C(c1ncn(C3CC3)c1C(=O)N1CCOCC1)Cn1c-2c(C2CCCCC2)c2ccc(C(=O)NS(=O)(=O)C(C)C)cc21`, the values for the IC50 against HCV NS5B (class symbol) and at HCV NS5B (exact value) were 1.7 to 500 nM and 2.4 nM, respectively. In addition, the EC50 in the test with HCV replicon (class symbol) was 1.7 to 500 nM; with HCV replicon (exact value), 8.8 nM.
In the case of `COc1ccc2c(c1)C=C(c1ncn(C3CCC3)c1C(=O)N1CCOCC1)Cn1c-2c(C2CCCCC2)c2ccc(C(=O)NS(=O)(=O)C(C)C)cc21`, the IC50 on HCV NS5B (class symbol) was 1.7 to 500 nM; against HCV NS5B (exact value), 1.8 nM. Moreover, the EC50 in the test with HCV replicon (class symbol) is 1.7 to 500 nM; in the test on HCV replicon (exact value), 9 nM.
On to `CCN1CC2CC1CN2C(=O)c1c(C2=Cc3cc(OC)ccc3-c3c(C4CCCCC4)c4ccc(C(=O)NS(=O)(=O)C(C)C)cc4n3C2)ncn1C1CCC1` (stereo not drawn), for which the IC50 against HCV NS5B (class symbol) is 1.7 to 500 nM. For the same compound, the EC50 with HCV replicon (class symbol) was in the range of 1.7 to 500 nM.
Take `COc1ccc2c(c1)C=C(c1ncn(C3CCC3)c1C(=O)N1C[C@@H](C)O[C@@H](C)C1)Cn1c-2c(C2CCCCC2)c2ccc(C(=O)NS(=O)(=O)C(C)C)cc21`: the IC50 at HCV NS5B (class symbol) is 1.7 to 500 nM. This compound also registered an EC50 in the test on HCV replicon (class symbol) of 1.7 to 500 nM.
Regarding `COc1ccc2c(c1)C=C(c1c(C(=O)N3C[C@@H]4C[C@H]3CN4C)cnn1C1CCC1)Cn1c-2c(C2CCCCC2)c2ccc(C(=O)NS(=O)(=O)C(C)C)cc21`, at HCV NS5B (class symbol), the IC50 was 1.7 to 500 nM. This compound also returned an EC50 in the test on HCV replicon (class symbol) of 1.7 to 500 nM.
`COc1ccc2c(c1)C=C(c1c(C(=O)N3C[C@@H]4C[C@H]3CN4)c(C)nn1C1CCC1)Cn1c-2c(C2CCCCC2)c2ccc(C(=O)NS(=O)(=O)C(C)C)cc21`: on HCV NS5B (class symbol), the IC50 is less than 1.7 nM. Moreover, in the test with HCV replicon (class symbol), the EC50 lay in the range of 1.7 to 500 nM.
